Legend:
[1] = molecular target: cytochrome P450 2C9 (Homo sapiens (Human), UniProt P11712); test: Cytochrome P450 2C9 inhibition; assay type: in vitro ADME; settings: human liver microsomes, Diclofenac hydroxylation; read-out: IC50 CYP2C9 inhibition
Protocol: Assay for Determination of Cytochrome P450 2C9 Inhibition
(§1) All assays are carried out on a robotic system in 96 well plates. The final incubation volume contains TRIS buffer (0.1 M), MgCl2 (5 mM), human liver microsomes (0.1 mg/ml), Diclofenac (10 μM) and the test compound at five different concentrations or no compound (high control) in duplicate (e.g. highest concentration 10-50 μM with subsequent serial 1:4 dilutions). Following a short preincubation period, reactions are started with the cofactor (NADPH, 1 mM) and stopped by cooling the incubation down to 8° C. and subsequently by addition of one volume of acetonitrile. An internal standard solution—usually the stable isotope of the formed metabolite—is added after quenching of incubations. Peak area analyte (=metabolite formed) and internal standard is determined by LC-MS/MS. The resulting peak area ratio analyte to internal standard in these incubations is compared to a control activity containing no test compound.
(§2) If the inhibition of the reaction is already >50% at the lowest concentration of the test compound, the IC50 is assigned “<lowest concentration tested” (usually <0.4 μM). If the inhibition of the reaction is still <50% at the highest concentration of the test compound, the IC50 is assigned “>highest concentration tested” (usually >50 μM).

[2] = molecular target: cytochrome P450 2C19 (Homo sapiens (Human), UniProt P33261); test: Cytochrome P450 2C19 inhibition; assay type: in vitro ADME; settings: human liver microsomes, Mephenytoin hydroxylation; read-out: IC50 CYP2C19 inhibition
Protocol: Assay for Determination of Cytochrome P450 2C19 Inhibition
as §1, with “microsomes (0.5” for “microsomes (0.1”, “mg/ml), (S)-Mephenytoin (70” for “mg/ml), Diclofenac (10”
as §2

[3] = molecular target: hERG potassium channel (Homo sapiens (Human), UniProt Q12809); test: hERG inhibition patch clamp assay; assay type: cell-based; settings: human, @ 10 μM
Excerpt: Calculations: Fold induction=(Enzyme mRNA Compound)/(Enzyme mRNA Solvent Control) Inducer Potency=(Fold Compound)/(Fold Rifampicin)*100 Assay for Determination of hERG Inhibition
The inhibition of the hERG (human ether-a-go-go-related gene) potassium channel can be determined as described in Rast, G., & Guth, B. D., Journal of Pharmacological and Toxicological Methods (2014), http://dx.doi.org/10.1016/j.vasen.2014.08.001.

cytochrome P450 2C9, sequence (P11712 whole entry): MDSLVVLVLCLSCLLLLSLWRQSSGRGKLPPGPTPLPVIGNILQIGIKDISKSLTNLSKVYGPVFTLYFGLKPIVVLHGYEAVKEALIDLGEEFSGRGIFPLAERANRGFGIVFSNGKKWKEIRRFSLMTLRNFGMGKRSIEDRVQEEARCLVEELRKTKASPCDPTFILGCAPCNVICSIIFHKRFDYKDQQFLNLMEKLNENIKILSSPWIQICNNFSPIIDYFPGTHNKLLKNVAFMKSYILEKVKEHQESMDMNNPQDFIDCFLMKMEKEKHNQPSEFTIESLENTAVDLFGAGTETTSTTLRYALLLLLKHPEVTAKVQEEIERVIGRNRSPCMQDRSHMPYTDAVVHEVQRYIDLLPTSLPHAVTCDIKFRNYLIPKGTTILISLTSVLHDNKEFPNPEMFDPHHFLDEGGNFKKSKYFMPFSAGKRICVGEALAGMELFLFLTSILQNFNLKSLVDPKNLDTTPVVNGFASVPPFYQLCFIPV
cytochrome P450 2C19, sequence (P33261 whole entry): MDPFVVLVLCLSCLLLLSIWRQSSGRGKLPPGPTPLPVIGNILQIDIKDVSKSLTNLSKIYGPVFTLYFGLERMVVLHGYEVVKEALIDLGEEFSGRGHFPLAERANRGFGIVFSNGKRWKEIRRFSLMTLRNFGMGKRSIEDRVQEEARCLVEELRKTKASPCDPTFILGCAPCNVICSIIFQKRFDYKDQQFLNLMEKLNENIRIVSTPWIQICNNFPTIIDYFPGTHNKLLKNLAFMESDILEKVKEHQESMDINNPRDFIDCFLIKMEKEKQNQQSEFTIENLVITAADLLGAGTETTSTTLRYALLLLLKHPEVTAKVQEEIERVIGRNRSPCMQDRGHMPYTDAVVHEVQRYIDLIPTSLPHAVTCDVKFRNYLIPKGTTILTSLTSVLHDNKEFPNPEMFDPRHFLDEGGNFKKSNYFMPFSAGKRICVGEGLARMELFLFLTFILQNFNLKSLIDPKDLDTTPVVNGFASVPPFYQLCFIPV
hERG potassium channel, sequence (Q12809 whole entry): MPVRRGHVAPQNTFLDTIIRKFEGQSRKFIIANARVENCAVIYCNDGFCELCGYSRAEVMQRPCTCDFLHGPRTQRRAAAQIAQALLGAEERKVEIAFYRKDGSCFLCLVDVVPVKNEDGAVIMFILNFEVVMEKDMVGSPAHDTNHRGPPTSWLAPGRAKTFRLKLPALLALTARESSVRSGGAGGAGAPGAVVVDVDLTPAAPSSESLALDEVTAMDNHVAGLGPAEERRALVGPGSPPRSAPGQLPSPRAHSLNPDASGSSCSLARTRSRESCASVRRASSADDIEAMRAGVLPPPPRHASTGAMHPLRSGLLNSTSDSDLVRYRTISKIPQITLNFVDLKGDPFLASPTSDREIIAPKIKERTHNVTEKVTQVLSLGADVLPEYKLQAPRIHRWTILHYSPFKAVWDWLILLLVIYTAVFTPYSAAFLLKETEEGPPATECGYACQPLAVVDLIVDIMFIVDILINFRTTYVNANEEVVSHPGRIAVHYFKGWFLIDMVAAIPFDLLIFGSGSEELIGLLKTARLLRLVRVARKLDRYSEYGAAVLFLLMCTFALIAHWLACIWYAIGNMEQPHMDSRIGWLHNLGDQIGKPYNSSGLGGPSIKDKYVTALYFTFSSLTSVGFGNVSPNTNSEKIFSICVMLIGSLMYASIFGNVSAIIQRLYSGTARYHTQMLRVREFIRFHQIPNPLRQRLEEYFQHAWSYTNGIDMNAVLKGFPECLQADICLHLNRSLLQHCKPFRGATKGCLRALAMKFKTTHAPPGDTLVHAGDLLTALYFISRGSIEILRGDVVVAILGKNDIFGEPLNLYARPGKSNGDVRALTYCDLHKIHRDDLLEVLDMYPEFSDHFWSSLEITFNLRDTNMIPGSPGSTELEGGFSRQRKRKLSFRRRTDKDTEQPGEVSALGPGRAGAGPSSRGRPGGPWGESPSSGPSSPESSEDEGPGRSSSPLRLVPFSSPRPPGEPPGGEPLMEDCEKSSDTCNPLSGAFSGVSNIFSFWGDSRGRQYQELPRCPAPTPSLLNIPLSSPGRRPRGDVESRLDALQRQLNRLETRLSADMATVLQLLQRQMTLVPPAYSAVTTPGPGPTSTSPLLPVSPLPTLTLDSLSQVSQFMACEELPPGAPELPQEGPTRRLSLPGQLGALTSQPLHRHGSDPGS

CNC(=O)c1cc(C#N)ccc1[C@@H]1C(C(C)=O)=C(C)N(c2cccc(C(F)(F)F)c2)C(=O)N1C [Example 13.1]
IC50 [1]: > 50 µM
IC50 [2]: > 50 µM

CC(=O)C1=C(C)N(c2cccc(C(F)(F)F)c2)C(=O)N(C)[C@@H]1c1ccc(C#N)cc1-c1ccc(=O)n(C)c1 [Example 16, 4-[(R)-5-Acetyl-3,6-dimethyl-2-oxo-1-(3-trifluoromethyl-phenyl)-1,2,3,4-tetrahydro-pyrimidin-4-yl]-3-(1-methyl-6-oxo-1,6-dihydro-pyridin-3-yl)-benzonitrile]
inhibition at 10 µM [3]: 8%
IC50 [1]: > 50 µM
IC50 [2]: > 50 µM
